Assays:
[1] = system: NF-κB/p65 nuclear translocation in KYSE-150 cells; experiment: NF-κB/p65 nuclear translocation upon serum stimulation in ESCC cells; assay type: cell-based, human; conditions: 10% FBS stimulation 1 h (about 84% without treatment)
Method: (§1) Compound (A) was tested on blocking nuclear factor kappa B (NF-κB/p65) nuclear translocation upon serum stimulation in ESCC cells. KYSE-150 cells were starved in medium supplemented with 0.1% FBS for 24 h. […] Upon 10% FBS stimulation for 1 h, NF-κB/p65 appeared to translocate to nuclei evidenced by co-localization of nuclei in about 84% of KYSE-150 cells.

KYSE-150 = experiment: Anti-proliferative effect in human ESCC cell lines (MTT assay); assay type: cell-based; conditions: KYSE-150, MTT, 48-72 h incubation, read-out: IC50, cell viability
Method: (§2) ESCC cell lines (KYSE-30, KYSE-150, KYSE-790, and KYSE-70) were plated in 96-well plates and incubated with desired concentrations of Compound A for 48-72 h. At the end of the incubation period, MTT (3-(4,5-dimethylthiazol-2-yl)-2,5-diphenyltetrazolium bromide) was added. The plate was placed on a shaker for 5 min to mix the formazan and the optical density at 560 nm was measured on a spectrophotometer. Data were plotted using Graphpad Prism for calculation of the IC50 concentrations.

KYSE-30 = experiment: as above; assay type: cell-based; conditions: KYSE-30, MTT, 48-72 h incubation, read-out: IC50, cell viability
Method: as §2

KYSE-70 = experiment: as above; assay type: cell-based; conditions: KYSE-70, MTT, 48-72 h incubation, read-out: IC50, cell viability
Method: as §2

KYSE-780 = experiment: as above; assay type: cell-based; conditions: KYSE-780, MTT, 48-72 h incubation, read-out: IC50, cell viability
[2] = system: KYSE-150 mouse xenograft model; experiment: Anti-tumor effect in esophageal cancer xenograft; assay type: in vivo; conditions: 20 mg/kg intra-peritoneal every 2 days for 2 weeks, KYSE-150 xenograft mice
Method: (§3) The anti-tumor effect of Compound (A) was determined in a KYSE-150 mouse xenograft model. Briefly, 10^6 cells were injected into the flank region. Mice were randomized according to body weight into two groups of five. A week after tumor cell injection, mice either received the vehicle or intra-peritoneal administration of Compound (A) at 20 mg/kg every 2 days for a 2 week period. At the end of the study period, animals were sacrificed and the tumors harvested.

[3] = system: NF-κB/p65 in tumor tissues; experiment: Immunofluorescence staining of xenograft tumor tissues (nuclear NF-κB/p65, cyclin D1); assay type: in vivo, mouse
Method: as §3, §1

Cc1nnsc1C(=O)Nc1ccc(-n2nc(C(F)(F)F)cc2C(F)(F)F)cc1 [BTP-2, reference compound]
number of cells with NF-κB/p65 nuclear localization ([1]; 20 μM): 8.53%

O=C(Cc1ccc2ncccc2c1)Nc1ccc(-n2nc(C3CC3)cc2C2CC2)cc1 [Compound (A), N-(4-(3,5-dicyclopropyl-1H-pyrazol-1-yl)phenyl)-2-(quinolin-6-yl)acetamide]
IC50 (KYSE-150): 1400 nM
IC50 (KYSE-30): 1200 nM
IC50 (KYSE-70): 1400 nM
IC50 (KYSE-780): 5500 nM
tumor growth compared to vehicle treated control group [2]: significantly reduced tumor growth
number of cells with NF-κB/p65 nuclear localization ([1]; 10 μM): 10.52%
nuclear NF-κB/p65 positive cells number in tumor tissues ([3]; immunofluorescence of tumor tissues, 41% in control animals): 9%
expression of cyclin D1 in tumors compared with control group animals ([3]; tumors removed from treated animals): dramatically reduced
